# System: healthy subjects
# Assay: Phase 1 study in healthy subjects: adverse events and acute effects
# Type: in vivo, human
# Description: A Phase 1 randomized, double-blind, placebo-controlled study to evaluate the effect of psilocybin on cognitive and emotional processing as compared to placebo in healthy volunteers was conducted. The study investigated the short-term (Day 7) and long-term (Day 28) effects of moderate (10 mg) and high doses (25 mg) of psilocybin on key domains of cognition, such as episodic memory, attention, working and spatial memory, social cognition and elements of executive function, including cognitive flexibility.
# 90 healthy subjects were studied. Approximately 50% of the subjects were psilocybin-naïve. For subjects with prior psilocybin experience, the last exposure was at least 1 year prior to the signing of the Informed Consent Form (ICF). Approximately 50% of the subjects were female. Subjects were stratified by sex and age (18-35 years old; >35 years old).
# Each subject was assigned 1 treatment bottle containing 5 capsules packaged in a double-blind fashion, depending on the randomized treatment arm, the bottle contained one of the following: • a. Psilocybin 10 mg: 2×5-mg oral psilocybin capsules plus 3×placebo capsules • b. Psilocybin 25 mg: 5×5-mg oral psilocybin capsules • c. Placebo: 5×placebo capsules
# Each 5-mg oral psilocybin capsule comprised 5 mg crystalline psilocybin in the form of Polymorph A, 12.5 mg of SMCC 50, 79.5 mg of SMCC 90, 1 mg sodium starch glycolate, 1 mg colloidal silicon dioxide, and 1 mg sodium stearyl fumarate
# Adverse events: Throughout the course of the study, all AEs were monitored and recorded. Each AE was classified according to the following criteria: • i. […] Moderate: The AE produces some impairment of functioning, but is not hazardous to the subject's health. • iii. Severe: The AE produces significant impairment of functioning or incapacitation and is a definite hazard to the subject's health.
# Selected Adverse Events of included: • (a) Euphoric mood • (b) Dissociative disorder • (c) Hallucination • (d) Psychotic disorder • (e) Cognitive disorder • (f) Disturbance in attention • (g) Altered mood • (h) Impairment of psychomotor skills • (i) Inappropriate affect • (j) Overdose • (k) Intentional product misuse • (l) Illusion
# For example, drug-induced hepatitis that resolved without evidence of hepatic failure would not be considered life threatening even though drug-induced hepatitis can be fatal. • (c) Inpatient hospitalization or prolongation of existing hospitalization. • (d) Persistent or significant disability/incapacity. • (e) Congenital anomaly/birth defect in the offspring of a subject who received psilocybin. • (f) Other: Important medical events that may not result in death, be life-threatening, or require hospitalization, may be considered an SAE when, based upon appropriate medical judgment, they may jeopardize the subject and may require medical or surgical intervention to prevent one of the outcomes listed in this definition. […] Visits:
# Visit 3 (V3): Drug Administration (Day 0): The subject was asked to eat a light breakfast at least two hours prior to coming to the clinic for study drug administration. On Day 0 (V3), the subject underwent the SSTS, had vital signs obtained, medications reviewed, AEs recorded and eligibility reviewed prior to being randomized to study drug. The study drug was administered to up to six subjects simultaneously in individual beds separated by a curtain. The subject was invited to put on eyeshades and headphones, lie down and listen to calming music for the rest of the session (six hours). The subject was supported 1:1 with a chaperone and supervised by the study psychiatrist and lead therapist.
# The effects of psilocybin usually started about 20 to 30 min after administration, becoming most intense in the first 90 to 120 min and gradually subsiding in about 5 to 6 hours. […]
smiles,measurement,setting,value
"CN(C)CCc1c[nH]c2cccc(OP(=O)(O)O)c12 [Psilocybin, psilocybin]","Illusion, worst severity Moderate: Events",10 mg,16
same,Serious adverse events or adverse events that led to withdrawal,"10 mg and 25 mg, 12-week study",no serious adverse events
same,"Selected TEAE (any), subjects N (%)",Psilocybin 10 mg (N = 30),27 (90.0) N (%)
same,"Selected TEAE: Affect lability, Events",Psilocybin 10 mg (N = 30),5
same,"Selected TEAE: Affect lability, subjects N (%)",Psilocybin 10 mg (N = 30),5 (16.7) N (%)
same,"Selected TEAE: Change in sustained attention, Events",Psilocybin 10 mg (N = 30),2
same,"Selected TEAE: Change in sustained attention, subjects N (%)",Psilocybin 10 mg (N = 30),2 (6.7) N (%)
same,"Selected TEAE: Depressed mood, Events",Psilocybin 10 mg (N = 30),1
same,"Selected TEAE: Depressed mood, subjects N (%)",Psilocybin 10 mg (N = 30),1 (3.3) N (%)
same,"Selected TEAE: Dissociative identity disorder, Events",Psilocybin 10 mg (N = 30),2
same,"Selected TEAE: Dissociative identity disorder, subjects N (%)",Psilocybin 10 mg (N = 30),1 (3.3) N (%)
same,"Selected TEAE: Euphoric mood, Events",Psilocybin 10 mg (N = 30),7
same,"Selected TEAE: Euphoric mood, subjects N (%)",Psilocybin 10 mg (N = 30),7 (23.3) N (%)
same,"Selected TEAE: Hallucination, Events",Psilocybin 10 mg (N = 30),3
same,"Selected TEAE: Hallucination, auditory, Events",Psilocybin 10 mg (N = 30),4
same,"Selected TEAE: Hallucination, auditory, subjects N (%)",Psilocybin 10 mg (N = 30),4 (13.3) N (%)
same,"Selected TEAE: Hallucination, gustatory, Events",Psilocybin 10 mg (N = 30),1
same,"Selected TEAE: Hallucination, gustatory, subjects N (%)",Psilocybin 10 mg (N = 30),1 (3.3) N (%)
same,"Selected TEAE: Hallucination, olfactory, Events",Psilocybin 10 mg (N = 30),1
same,"Selected TEAE: Hallucination, olfactory, subjects N (%)",Psilocybin 10 mg (N = 30),1 (3.3) N (%)
same,"Selected TEAE: Hallucination, subjects N (%)",Psilocybin 10 mg (N = 30),3 (10.0) N (%)
same,"Selected TEAE: Hallucination, tactile, Events",Psilocybin 10 mg (N = 30),2
same,"Selected TEAE: Hallucination, tactile, subjects N (%)",Psilocybin 10 mg (N = 30),2 (6.7) N (%)
same,"Selected TEAE: Hallucination, visual, Events",Psilocybin 10 mg (N = 30),20
same,"Selected TEAE: Hallucination, visual, subjects N (%)",Psilocybin 10 mg (N = 30),18 (60.0) N (%)
same,"Selected TEAE: Illusion, Events",Psilocybin 10 mg (N = 30),25
same,"Selected TEAE: Illusion, subjects N (%)",Psilocybin 10 mg (N = 30),19 (63.3) N (%)
same,"Selected TEAE: Memory impairment, Events",Psilocybin 10 mg (N = 30),1
same,"Selected TEAE: Memory impairment, subjects N (%)",Psilocybin 10 mg (N = 30),1 (3.3) N (%)
same,"Selected TEAE: Mood altered, Events",Psilocybin 10 mg (N = 30),23
same,"Selected TEAE: Mood altered, subjects N (%)",Psilocybin 10 mg (N = 30),13 (43.3) N (%)
same,"Selected TEAE: Nervous system disorders (SOC), Events",Psilocybin 10 mg (N = 30),2
same,"Selected TEAE: Nervous system disorders (SOC), subjects N (%)",Psilocybin 10 mg (N = 30),2 (6.7) N (%)
same,"Selected TEAE: Psychiatric disorders (SOC), Events",Psilocybin 10 mg (N = 30),104
same,"Selected TEAE: Psychiatric disorders (SOC), subjects N (%)",Psilocybin 10 mg (N = 30),27 (90.0) N (%)
same,"Selected TEAE: Psychomotor skills impaired, Events",Psilocybin 10 mg (N = 30),1
same,"Selected TEAE: Psychomotor skills impaired, subjects N (%)",Psilocybin 10 mg (N = 30),1(3.3) N (%)
same,"Selected TEAE: Somatic hallucination, Events",Psilocybin 10 mg (N = 30),8
same,"Selected TEAE: Somatic hallucination, subjects N (%)",Psilocybin 10 mg (N = 30),8 (26.7) N (%)
same,"Selected TEAE: Substance-induced psychotic disorder, Events",Psilocybin 10 mg (N = 30),0
same,"Selected TEAE: Substance-induced psychotic disorder, subjects N (%)",Psilocybin 10 mg (N = 30),0 N (%)
same,"Selected TEAE (any), subjects N (%)",Psilocybin 25 mg (N = 30),27 (90.0) N (%)
same,"Selected TEAE: Affect lability, Events",Psilocybin 25 mg (N = 30),3
same,"Selected TEAE: Affect lability, subjects N (%)",Psilocybin 25 mg (N = 30),3 (10.0) N (%)
same,"Selected TEAE: Change in sustained attention, Events",Psilocybin 25 mg (N = 30),0
same,"Selected TEAE: Change in sustained attention, subjects N (%)",Psilocybin 25 mg (N = 30),0 N (%)
same,"Selected TEAE: Depressed mood, Events",Psilocybin 25 mg (N = 30),2
same,"Selected TEAE: Depressed mood, subjects N (%)",Psilocybin 25 mg (N = 30),2 (6.7) N (%)
same,"Selected TEAE: Dissociative identity disorder, Events",Psilocybin 25 mg (N = 30),2
same,"Selected TEAE: Dissociative identity disorder, subjects N (%)",Psilocybin 25 mg (N = 30),2 (6.7) N (%)
same,"Selected TEAE: Euphoric mood, Events",Psilocybin 25 mg (N = 30),8
same,"Selected TEAE: Euphoric mood, subjects N (%)",Psilocybin 25 mg (N = 30),7 (23.3) N (%)
same,"Selected TEAE: Hallucination, Events",Psilocybin 25 mg (N = 30),2
same,"Selected TEAE: Hallucination, auditory, Events",Psilocybin 25 mg (N = 30),4
same,"Selected TEAE: Hallucination, auditory, subjects N (%)",Psilocybin 25 mg (N = 30),4 (13.3) N (%)
same,"Selected TEAE: Hallucination, gustatory, Events",Psilocybin 25 mg (N = 30),0
same,"Selected TEAE: Hallucination, gustatory, subjects N (%)",Psilocybin 25 mg (N = 30),0 N (%)
same,"Selected TEAE: Hallucination, olfactory, Events",Psilocybin 25 mg (N = 30),1
same,"Selected TEAE: Hallucination, olfactory, subjects N (%)",Psilocybin 25 mg (N = 30),1 (3.3) N (%)
same,"Selected TEAE: Hallucination, subjects N (%)",Psilocybin 25 mg (N = 30),2 (6.7) N (%)
same,"Selected TEAE: Hallucination, tactile, Events",Psilocybin 25 mg (N = 30),4
same,"Selected TEAE: Hallucination, tactile, subjects N (%)",Psilocybin 25 mg (N = 30),4 (13.3) N (%)
same,"Selected TEAE: Hallucination, visual, Events",Psilocybin 25 mg (N = 30),22
same,"Selected TEAE: Hallucination, visual, subjects N (%)",Psilocybin 25 mg (N = 30),21 (70.0) N (%)
same,"Selected TEAE: Illusion, Events",Psilocybin 25 mg (N = 30),26
same,"Selected TEAE: Illusion, subjects N (%)",Psilocybin 25 mg (N = 30),18 (60.0) N (%)
same,"Selected TEAE: Memory impairment, Events",Psilocybin 25 mg (N = 30),0
same,"Selected TEAE: Memory impairment, subjects N (%)",Psilocybin 25 mg (N = 30),0 N (%)
same,"Selected TEAE: Mood altered, Events",Psilocybin 25 mg (N = 30),25
same,"Selected TEAE: Mood altered, subjects N (%)",Psilocybin 25 mg (N = 30),15 (50.0) N (%)
same,"Selected TEAE: Nervous system disorders (SOC), Events",Psilocybin 25 mg (N = 30),0
same,"Selected TEAE: Nervous system disorders (SOC), subjects N (%)",Psilocybin 25 mg (N = 30),0 N (%)
same,"Selected TEAE: Psychiatric disorders (SOC), Events",Psilocybin 25 mg (N = 30),106
same,"Selected TEAE: Psychiatric disorders (SOC), subjects N (%)",Psilocybin 25 mg (N = 30),27 (90.0) N (%)
same,"Selected TEAE: Psychomotor skills impaired, Events",Psilocybin 25 mg (N = 30),0
same,"Selected TEAE: Psychomotor skills impaired, subjects N (%)",Psilocybin 25 mg (N = 30),0 N (%)
same,"Selected TEAE: Somatic hallucination, Events",Psilocybin 25 mg (N = 30),6
same,"Selected TEAE: Somatic hallucination, subjects N (%)",Psilocybin 25 mg (N = 30),5 (16.7) N (%)
same,"Selected TEAE: Substance-induced psychotic disorder, Events",Psilocybin 25 mg (N = 30),1
same,"Selected TEAE: Substance-induced psychotic disorder, subjects N (%)",Psilocybin 25 mg (N = 30),1 (3.3) N (%)

# Reference: US12377112B2, “Methods of treating neurocognitive disorders, chronic pain and reducing inflammation” (priority 2019, dated 2025)
